Measurements as given in a melting point compilation (Tetko et al.; mined from patent text by program, amines drawn as free bases though some values may be those of a salt).

Row | melting point [°C] | Structure (SMILES)
1 | 51 to 53 | CCOC(=O)c1ccnn1-c1c(Cl)cccc1Cl
2 | 144 to 146 | CC1Nc2ccc(-c3cccc(Cl)c3)cc2C(C)(C)O1 (stereo not drawn)
3 | 79 to 80 | Cc1ccccc1N=NC1=NCCS1
4 | 180 to 182 | CCCCOC(=O)Nc1ccnc(-c2ccncc2)n1
5 | 105 | Cc1cc(C)c(=O)n(C(C(=O)NS(=O)(=O)c2ccc(C(C)C)cc2)c2ccc3c(c2)OCO3)n1 (stereo not drawn)
6 | 65 to 68 | CSc1ncnn1C[C@]1(c2ccc(F)cc2F)O[C@@H]1c1ccccc1F (relative stereo)
7 | 184 to 185 | COC(=O)c1ccc2c(=O)[nH]c(=O)n(CCCCBr)c2c1
8 | 203 | CC(C)(C)OC(=O)CN(C(=O)CNC(=O)c1cc2ccccc2[nH]1)c1ccccc1
9 | 96 to 98 | Nc1ccc(C2CCSCC2)c(F)c1
10 | 121 to 124 | CC#Cc1cc(Cl)nc(Nc2ccccc2)n1
11 | 212 | Cc1cc2occc2c(N2CCN(CC[C@H]3CC[C@H](NC(=O)CC4CCOCC4)CC3)CC2)n1
12 | 136 | Cc1ccc(OC(=O)n2c3c(c(=O)n(C4CCCCO4)c2=O)CCC3)cc1 (stereo not drawn)
13 | 180 to 182 | CN(c1ccc(OC(F)(F)F)cc1)c1cc(C(F)(F)F)nc(NN=Cc2ccc(OC(F)(F)F)cc2)n1
14 | 294 to 295 | COc1ccc(-c2c(Cl)c(CN3C(=O)CCC3=O)nc3sc4c(F)c(O)ccc4c23)cc1
15 | 177 to 179 | N#Cc1cc(=O)c(-c2ccccc2)co1
16 | 162 to 165 | CCCCNS(=O)(=O)CC(O)C(O)C(CC1CCCCC1)NC(=O)c1ccc(O)c(O)c1 (stereo not drawn)
17 | 213 to 215 | O=C1NCCc2[nH]c3cc(F)ccc3c21
18 | 154 to 157 | CC(C)(C)C1CC(=CO)C(Cl)=C(C=O)C1 (stereo not drawn)
19 | 55 to 56 | CCCCN(Sc1nc2ccccc2s1)C(C)(C)C
20 | 77 to 78 | Nc1cc(F)c(Cl)c(F)c1N
21 | 192 to 193 | NC(N)=Nc1nc(-c2cccc(CNC=O)n2)cs1
22 | 151 to 152 | O=S1(=O)N=CN(C2CC2)c2c(F)cccc21
23 | 156 to 157 | C#CC1(O)CCC2(C)C(CCC3C2CCC2(C)C(C(=O)CO)CCC32)C1 (stereo not drawn)
24 | 91 | C=C(C)C(=O)OCCC#Cc1ccc2c(ccc3cc(OC(=O)C(=C)C)ccc32)c1
25 | 93 to 95 | Cn1cc(CS(C)=O)c(=O)c2ccccc21 (stereo not drawn)

Row | melting point [°C] | Structure (SMILES)
26 | 124 | CC1(C)CCC(C)(C)c2cc(C(O)COc3ccc(C(=O)NN4CCCCC4)c(O)c3)ccc21 (stereo not drawn)
27 | 169 to 171 | C=C(COC1CC2C3CCC4=CC(=O)CCC4(C)C3(F)C(O)CC2(C)C1(O)C(=O)CO)c1ccccc1 (stereo not drawn)
28 | 103 to 111 | CCOC(=O)[C@H](Cc1cccc(OCc2ccc3ccccc3c2)c1)NC(=O)C(F)(F)F
29 | 235 to 236 | COc1ccc2c(Cc3ccc(O)cc3)c(-c3ccccc3)c(=O)oc2c1
30 | 101 | Cc1cc(C)n(C(=O)CCNS(=O)(=O)c2ccc(Cl)cc2)n1
31 | 107 to 108 | COc1ccc2cc(C(O)=CC(C)=O)cc(F)c2c1
32 | 168 to 172 | CS(=O)(=O)Nc1ccc(OCCN2CCC(C(=O)c3ccc(NS(C)(=O)=O)cc3)CC2)cc1
33 | 162 to 163 | COc1cc(COc2nn(Cc3ccccc3)cc2C(=O)O)ccc1OCc1nc(-c2ccccc2)oc1C
34 | 201 to 202 | CCCN(Cc1cccc(C(=N)N)c1)C(=O)Nc1ccc(-c2ccccc2S(=O)(=O)NC(C)(C)C)cc1
35 | 220 to 222 | CCc1nc(O)c2c(n1)c(C)nn2C
36 | > 360 | COc1ccc2nc3[nH]c(=O)[nH]c3cc2c1
37 | 212 to 214 | CC(C)C[C@@H]1NC(=O)OC1(c1ccccc1)c1ccccc1
38 | 208 to 209 | C=CCNC(=O)Cn1c(-c2ccc(Cl)cc2)nc2cccnc21
39 | 205 to 207 | CC1(C)Oc2ccc(C#N)cc2[C@@H](NC(=NC#N)N2CCN(Cc3ccccc3)CC2)[C@@H]1O (relative stereo)
40 | 202 to 204 | CCCn1c(COCC)nc2c(N)nc3cc(OC4CCNCC4)ccc3c21
41 | 196 to 198 | C=C(C)Cc1c(O)c2c(c3c1CC(C)(C)N=C3c1ccccc1)CC(C)(C)O2
42 | 259 to 261 | CC1(c2ccc(O)c(O)c2)C(=O)Nc2ccccc2C1=O (stereo not drawn)
43 | 93 to 96 | COc1cc(OC)nc(-n2c(C(F)(F)F)nc3cc(C)ccc32)n1
44 | 161 to 162 | CNc1cnn(-c2ccc(F)cc2)c(=O)c1-c1cccc(C(F)(F)F)c1
45 | 156 to 158 | CN(C)C(=S)N(C)Cc1ccc(CCn2cnc3cc(-c4ccc(Cl)cc4)sc3c2=O)cc1
46 | 158 to 160 | CN1C(=O)c2cccnc2N(C)c2nc(-c3ccc[nH]3)ccc21
47 | 141 to 145 | Cc1ccc(S(=O)(=O)Oc2c(C(=O)c3ccc(S(C)(=O)=O)cc3Cl)cnn2C)cc1
48 | 108 | CCOC1CCN(C(=O)c2ccc(Cl)c(C3(C)C(=O)N(Cc4ccc(OC)cc4OC)c4ccc(Cl)cc43)c2)CC1 (stereo not drawn)
49 | 187 to 190 | CN1C(=O)C2(COc3cc4c(cc32)CCO4)c2ccccc21 (stereo not drawn)

Continued, compound first:

Row | Structure (SMILES) | melting point [°C]
50 | COc1cc2c(cc1-c1ccccc1)CCCc1c-2nc2ccc(F)cc2c1C(=O)O | > 300
51 | CC(C)(C)OC(=O)c1ccc(N2CC(CO)OC2=O)cc1F (stereo not drawn) | 148 to 149
52 | CC(=O)Nc1ccc(Sc2c([N+](=O)[O-])cc(C(=O)O)cc2S(N)(=O)=O)cc1 | 168
53 | COc1ccc(-c2cc(C)nn2-c2ccc([N+](=O)[O-])cc2)cc1 | 155 to 158
54 | Nc1ccc(C2CCN(C(=O)C(F)(F)F)CC2)cc1 | 111 to 112
55 | OCc1ccc(Cc2ccc3c(c2)OCO3)o1 | 68 to 69
56 | Fc1cccc(F)c1-c1nc(/C=C/c2ccc(-c3ccc(OC(F)(F)F)cc3)cc2)no1 | 122 to 123
57 | CCOC(=O)Cc1ccc(NC(=O)C(COS(C)(=O)=O)NS(=O)(=O)c2ccc(Br)cc2)cc1 (racemic) | 155 to 156
58 | CNC(=S)N1CCC23C=C[C@H](O)CC2Oc2c(OC)cc(Br)c(c23)C1 (stereo partly drawn) | 183 to 185
59 | CCCc1c(COc2ccc(C(=O)c3cccc(C#N)c3)cc2)ccc(C(C)=O)c1O | 146 to 148
60 | CN1C(=O)c2cscc2N(C(=O)Cc2ccccc2)c2ccccc21 | 210 to 212
61 | N=C(NCc1ccncc1)NN=Cc1c(Cl)cccc1Cl | 159 to 161
62 | Cc1c(-c2ccccc2)c(N2CC[C@H](N(C)C)C2)c2oc(C(=O)N(C)CCc3ccccc3)nc2c1C#N | 138 to 141
63 | CCCN1CCc2c(c(Br)cc([N+](=O)[O-])c2NC(C)=O)C1 | 166 to 167
64 | NC(=O)Cc1cc(Oc2ccc3c(ccn3C(=O)Nc3ccc(CN4CCN(C5CC5)CC4)c(C(F)(F)F)c3)c2)ncn1 | 122 to 126
65 | Cn1ccc(=O)c(OCc2ccccc2)c1C(O)c1ccc2c(c1)OCO2 (stereo not drawn) | 230 to 232
66 | Fc1ccc(CC[C@H]2CNCCN2)cc1 | 112 to 114
67 | Cn1cc(C(=O)C(Cl)Cl)c(=O)c(-c2cccc(C(F)(F)F)c2)c1 | 184 to 186
68 | COC(=O)c1ccc(Cl)c(C(=O)NOCc2ccc(Cl)cc2)c1Cl | 120 to 121
69 | CCn1cc(C(=O)O)c(=O)c2cc(Cl)c(N3CCNCC3)cc21 | 228 to 232
70 | CCCCc1csc2ccc([N+](=O)[O-])cc12 | 82 to 83
71 | CCc1nc2c(N)nc3ccccc3c2n1CCCNOC | 210 to 213
72 | O=C(O)C1=Cc2cc(Br)ccc2OC1C(F)(F)F (stereo not drawn) | 190 to 191
73 | C1=Nc2c(cnn2-c2ccccc2)C2=N[C@@H](Cc3ccccc3)CN12 | 255
74 | NC(=O)NC(=O)NCc1ccc(CNC(=O)[C@@H](CCCNC(N)=N[N+](=O)[O-])NC(=O)C(c2ccccc2)c2ccccc2)cc1 | 214 to 218

Row | Structure (SMILES) | melting point [°C]
75 | OC1CCc2c1cccc2-n1cccc1 (stereo not drawn) | 80 to 81
76 | CCN1C(=O)C(C)(C)C(=O)N(C)c2cc(CN(CCn3ccc4oc(C)cc4c3=O)Cc3cc(COC)nn3C)ccc21 | 113 to 115
77 | O=c1[nH]cnc2cc(Br)sc12 | 238 to 240
78 | O=c1c2cc3ccccc3cc2oc2cc(OCC3CO3)cc(OCC3CO3)c12 (stereo not drawn) | 181 to 182
79 | CSC(=S)NCc1cn(-c2ccc(N3CCOCC3)c(F)c2)nn1 | 148
80 | Cn1cc(-c2cccc(C(F)(F)F)c2)c(=O)c(-c2cccs2)c1 | 185 to 186
81 | FC(F)(F)C1(c2cc(Cl)cc(Cl)c2)CC(c2ccc(-n3cccc3)cc2)=NO1 (stereo not drawn) | 206 to 208
82 | Cc1nc(-c2ccc(C(=O)Nc3ccc(Cl)cc3)cc2)sc1C(=O)O | 276 to 278
83 | CNc1ccc(NC(=O)c2cc3cc(F)ccc3n2Cc2cccc(F)c2)cn1 | 225 to 227
84 | O=C1CNC(c2cccc(Cc3ccccc3)c2)=NN1CC(F)(F)F | 104 to 106
85 | COc1ccccc1-c1cc(=O)cc(N2CCOCC2)o1 | 125 to 127
86 | NC(=NCC(F)(F)F)Nc1ccnc(SCCCC(=O)NCCO)n1 | 148 to 150
87 | CN(C)CC(O)C1=CC2(CCCC2)c2ccccc21 (stereo not drawn) | 133 to 134
88 | CCOC(=O)c1ccc(NCc2ccccc2)cc1 | 90 to 93
89 | Cc1c(Br)cccc1NS(=O)(=O)c1cc(S(=O)(=O)Nc2cccc(Br)c2C)c2ccccc2c1O | 246 to 248
90 | CN1CCN(C2CC3C4CCC5CC(O)C(N6CCC(=O)CC6)CC5(C)C4CCC3(C)C2O)CC1 (stereo not drawn) | 225 to 229
91 | C[C@H]1C[C@@](O)(c2ccc(S(=O)(=O)c3ccc4c(c3)CCC(=O)N4C)s2)CCO1 | 80 to 82
92 | CCOCCc1cc2c(nc(O)n2CCCCS(C)(=O)=O)c(N)n1 | 203 to 206
93 | CCOC(=O)NC(=NCCC(c1ccccc1)c1ccc(F)cc1)NCCCc1c[nH]cn1 (stereo not drawn) | 131
94 | N#Cc1ccc2c(c1)[C@@H](OC1=CC(=O)CC1)[C@H](O)C(CF)(CF)O2 (relative stereo) | 200 to 201
95 | O=c1c2c(n(-c3cccc(Cl)c3)c3ncccc13)CCCC2 | 195 to 198
96 | O=C(c1ccccc1)C1OC1c1ccccc1 (stereo not drawn) | 90
97 | CCCCCCCCCCc1ccnc(C(=O)NCCCCC(=O)O)c1 | 54 to 56
98 | CS(=O)(=O)c1cccc(-c2ccccc2[N+](=O)[O-])c1 | 124 to 125
